Assay results as given in ChEMBL document CHEMBL5500381, “Antiviral drug discovery: Pyrimidine entry inhibitors for Zika and dengue viruses” (Eur J Med Chem, 2024).
≈ marks a conversion by molar mass, not a printed value. Calls of active or inactive are those of the source. No cut-off for these calls is given here.

How the values were obtained:
[1] = system: Zika virus; assay: Anti-viral activity against ZIKV Argentine strain INEVH116141 infected in african green monkey Vero cells at 0.1 MOI assessed as reduction in virus yield measured after 48 hrs by virus reduction assay; type: functional, organism-based
[2] = Selectivity index, ratio of CC50 for cytotoxicity against African green monkey Vero cells to EC50 for anti-viral activity against ZIKV Argentine strain INEVH116141; type: toxicity, cell-based; conditions: read-out: Selectivity Index
[3] = system: dengue virus type 2; assay: Anti-viral activity against DENV-2 Thailand/16681/1984 strain infected in african green monkey Vero cells at 0.1 MOI assessed as reduction in virus yield measured after 48 hrs by virus reduction assay; type: functional, organism-based; conditions: Thailand/16681/1984, Vero
[4] = Selectivity index, ratio of CC50 for cytotoxicity against African green monkey Vero cells to EC50 for anti-viral activity against DENV-2 Thailand/16681/1984 strain; type: toxicity, cell-based; conditions: read-out: Selectivity Index
[5] = Cytotoxicity against African green monkey Vero cells assessed as cell viability measured after 72 hrs by MTT assay; type: toxicity, cell-based; conditions: chlorocebus sabaeus
[6] = Plasma stability in mouse plasma measured at 4 hrs; type: ADME, cell-free
[7] = Solubility of the compound in phosphate-buffered saline solution (PBS,pH 7.4) incubated for 24 hrs by shake-flask method; type: physicochemical
[8] = Plasma stability in human plasma measured at 4 hrs; type: ADME, cell-free
[9] = Permeability of the compound by PAMPA assay; type: ADME
[10] = Solubility of the compound in simulated intestinal fluid (SIF,pH 6.8) incubated for 24 hrs by shake-flask method; type: ADME
[11] = Solubility of the compound in simulated gastric fluid (SGF,pH 1.2) incubated for 24 hrs by shake-flask method; type: ADME
[12] = system: dengue virus type 2; assay: Inhibition of DENV-2 Thailand/16681/1984 strain infection in African green monkey Vero cells assessed as post-internalization (Post-INT) treated after 2 hr post infection measured after 48 hrs; type: functional
[13] = system: dengue virus type 2; assay: Inhibition of DENV-2 Thailand/16681/1984 strain infection in African green monkey Vero cells assessed as absorption treated with compound for 1 hr during infection at 4 degC; type: functional, organism-based
[14] = system: dengue virus type 2; assay: Anti-viral activity against DENV-2 Thailand/16681/1984 strain infected in african green monkey Vero cells at 0.1 MOI assessed as reduction in fluorescence at 10 uM measured for first 8 hrs by plaque assay; type: functional, organism-based
[15] = Metabolic stability in mouse liver microsomes assessed as half life at 3 uM in presence of NADPH by HPLC-MS analysis; type: ADME, Microsome
[16] = system: Zika virus; assay: Inhibition of ZIKV Argentine strain INEVH116141 infection in African green monkey Vero cells assessed as internalization (INT) treated after 1 hr post infection measured after 48 hrs; type: functional
[17] = system: dengue virus type 2; assay: Virucidal effect in DENV-2 Thailand/16681/1984 strain assessed as inactivation of virus at 2.5 to 10 uM measured after 1.5 hrs incubation by viral inactivation assay; type: functional, organism-based; conditions: dose 2.5-10 µM
[18] = system: dengue virus type 2; assay: Anti-viral activity against DENV-2 Thailand/16681/1984 strain infected in african green monkey Vero cells assessed as reduction in genome level at 10 uM measured after 48 hrs by QRT-PCR analysis; type: functional, organism-based
[19] = Metabolic stability in mouse liver microsomes assessed as intrinsic clearance at 3 uM in presence of NADPH by HPLC-MS analysis; type: ADME, Microsome
[20] = system: Zika virus; assay: Anti-viral activity against ZIKV Argentine strain INEVH116141 infected in african green monkey Vero cells at 0.1 MOI assessed as reduction in […] at 10 uM measured for first 8 hrs by plaque assay; type: functional, organism-based
[21] = system: dengue virus type 2; assay: Inhibition of DENV-2 Thailand/16681/1984 strain infection in African green monkey Vero cells assessed as internalization (INT) treated after 1 hr post infection measured after 24 to 48 hrs; type: functional; conditions: time 24-48 hrs
[22] = system: Zika virus; assay: Anti-viral activity against ZIKV Argentine strain INEVH116141 infected in african green monkey Vero cells at 0.1 MOI assessed as reduction in […] at 10 uM measured after 48 hrs by epifluorescence microscopy; type: functional, organism-based
[23] = system: Zika virus; assay: Anti-viral activity against ZIKV Argentine strain INEVH116141 infected in African green monkey Vero cells at 0.1 MOI assessed as reduction in viral titer at 10 uM pre-treated for 4 hrs before cellular infection followed by infection 1 hr incubated with compound free culture medium for 48 hrs; type: functional, organism-based
[24] = Metabolic stability in mouse liver microsomes assessed as degradation at 3 uM in presence of NADPH measured upto 45 mins by HPLC-MS analysis; type: ADME, Microsome; conditions: read-out: CLH
[25] = system: dengue virus type 2; assay: Anti-viral activity against DENV-2 Thailand/16681/1984 strain infected in african green monkey Vero cells at 0.1 MOI assessed as reduction in fluorescence at 10 uM measured after 48 hrs by epifluorescence microscopy; type: functional, organism-based
[26] = system: Zika virus; assay: Anti-viral activity against ZIKV Argentine strain INEVH116141 infected in african green monkey Vero cells at 0.1 MOI assessed as reduction in […] at 10 uM measured for 10 to 12 hrs by plaque assay; type: functional, organism-based; conditions: time 10-12 hrs
[27] = system: dengue virus type 2; assay: Anti-viral activity against DENV-2 Thailand/16681/1984 strain infected in african green monkey Vero cells at 0.1 MOI assessed as reduction in fluorescence at 10 uM measured for 10 to 12 hrs by plaque assay; type: functional, organism-based; conditions: time 10-12 hrs
[28] = system: Zika virus; assay: Inhibition of ZIKV Argentine strain INEVH116141 infection in African green monkey Vero cells assessed as post-internalization (Post-INT) treated after 2 hr post infection measured after 24 hrs; type: functional
[29] = system: Zika virus; assay: Anti-viral activity against ZIKV Argentine strain INEVH116141 infected in African green monkey Vero cells at 0.1 MOI assessed as reduction in viral titer at 10 uM pre-treated for 2 hrs before cellular infection followed by infection 1 hr incubated with compound free culture medium for 48 hrs; type: functional, organism-based
[30] = system: dengue virus type 2; assay: Inhibition of DENV-2 Thailand/16681/1984 strain infection in African green monkey Vero cells assessed as post-internalization (Post-INT) treated after 2 hr post infection measured after 24 hrs; type: functional
[31] = system: Zika virus; assay: Anti-viral activity against ZIKV Argentine strain INEVH116141 infected in african green monkey Vero cells assessed as reduction in genome level at 10 uM measured after 48 hrs by QRT-PCR analysis; type: functional, organism-based
[32] = system: Zika virus; assay: Inhibition of ZIKV Argentine strain INEVH116141 infection in African green monkey Vero cells assessed as internalization (INT) treated after 1 hr post infection measured after 24 hrs; type: functional
[33] = system: Zika virus; assay: Inhibition of ZIKV Argentine strain INEVH116141 infection in African green monkey Vero cells assessed as post-internalization (Post-INT) treated after 2 hr post infection measured after 48 hrs; type: functional
[34] = Plasma stability in human plasma measured after 24 hrs relative to control; type: ADME, cell-free; conditions: read-out: Activity
[35] = system: dengue virus type 2; assay: Anti-viral activity against DENV-2 Thailand/16681/1984 strain infected in African green monkey Vero cells at 0.1 MOI assessed as reduction in viral titer at 10 uM pre-treated for 4 hrs before cellular infection followed by infection 1 hr incubated with compound free culture medium for 48 hrs; type: functional, organism-based
[36] = system: dengue virus type 2; assay: Anti-viral activity against DENV-2 Thailand/16681/1984 strain infected in African green monkey Vero cells at 0.1 MOI assessed as reduction in viral titer at 10 uM pre-treated for 2 hrs before cellular infection followed by infection 1 hr incubated with compound free culture medium for 48 hrs; type: functional, organism-based
[37] = system: Zika virus; assay: Inhibition of ZIKV Argentine strain INEVH116141 infection in African green monkey Vero cells assessed as absorption treated with compound for 1 hr during infection at 4 degC; type: functional, organism-based
[38] = system: Zika virus; assay: Virucidal effect in ZIKV Argentine strain INEVH116141 strain assessed as inactivation of virus at 2.5 to 10 uM measured after 1.5 hrs incubation by viral inactivation assay; type: functional, organism-based; conditions: dose 2.5-10 µM

Compound CC1(C)CC(Nc2nccc(Nc3ccc(Cl)cc3)n2)CC(C)(C)N1 has an EC50 [1] of 2.48 µM, a selectivity ratio [2] of 2.09 and an EC50 [3] of 3.15 µM. The selectivity ratio [4] was 1.64 and the CC50 at 72 h [5] was 5.19 µM.
With FC(F)(F)c1cc(NCc2cccnc2)nc(NCCN2CCCCC2)n1 the EC50 [1] was greater than 50 µM, the selectivity ratio [2] was less than 4 and the EC50 [3] was greater than 50 µM. For the same compound, the selectivity ratio [4] was less than 4 and the CC50 at 72 h [5] was greater than 200 µM.
CC1(C)CC(Nc2nc(C#N)cc(Nc3ccc(-c4ccccc4)cc3)n2)CC(C)(C)N1 gave an EC50 [1] of 4.4 µM, a selectivity ratio [2] of 1.7 and an EC50 [3] of 1.96 µM. For the same compound, the selectivity ratio [4] was 3.82 and the CC50 at 72 h [5] was 7.5 µM.
In the case of FC(F)(F)c1cc(Nc2ccc(-c3ccccc3)cc2)nc(NCCN2CCCCC2)n1, the Stability [6] is reported as “Stable”, the solubility thermodynamic at 24 h [7] is reported as 4 µg/mL (≈ 9.06 µM) and the Stability [8] is reported as “Stable”. The EC50 [1] was 1.11 µM, the selectivity ratio [2] was 5.12 and the EC50 [3] was 0.76 µM. For the same compound, the selectivity ratio [4] was 7.55, the permeability [9] was “Impermeable” and the CC50 at 72 h [5] was 5.74 µM. For the same compound, the solubility thermodynamic at 24 h [10] was 10 µg/mL (≈ 22.7 µM) and the solubility thermodynamic at 24 h [11] was 506 µg/mL (≈ 1150 µM).
For Fc1cc(Cl)ccc1CNc1cc(C(F)(F)F)nc(NCCN2CCCCC2)n1, the CC50 at 72 h [5] was 9.07 µM.
For FC(F)(F)c1cc(NCc2ccc(Cl)cc2)nc(NCCN2CCCCC2)n1, the Stability [6] was “Stable”, the solubility thermodynamic at 24 h [7] was 507 µg/mL (≈ 1230 µM) and the “inhibition (INH)” value [12] was 85.52%. The inhibition [13] was “inactive”, the Activity [14] was “Active” and the Stability [8] was “Stable”. The half-life at 3 µM [15] was 8.6 min, the “inhibition (INH)” value [16] was 29.22% and the Activity [17] was “inactive”. The Activity [18] was “Active”, the CLH [19] was 179 µL/min and the Activity [20] was “Active”. For the same compound, the “inhibition (INH)” value [21] was less than 50%, the Activity [22] was “Active” and the Activity [23] was “Active”. The microsomal CLint at 3 µM [24] was 179 µL/min/mg, the Activity [25] was “Active” and the Activity [26] was “Active”. The EC50 [1] was 2.61 µM, the Activity [27] was “Active” and the “inhibition (INH)” value [28] was 44.86%. For the same compound, the selectivity ratio [2] was 9.13, the Activity [29] was “inactive” and the EC50 [3] was 1.16 µM. For the same compound, the selectivity ratio [4] was 20.5, the permeability [9] was “Permeable” and the “inhibition (INH)” value [30] was 73.2%. The CC50 at 72 h [5] was 23.8 µM, the Activity [31] was “Active” and the “inhibition (INH)” value [32] was 26.36%. The “inhibition (INH)” value [33] was 43.7%, the solubility thermodynamic at 24 h [10] was 1690 µg/mL (≈ 4080 µM) and the remaining at 24 h [34] was 20%. For the same compound, the Activity [35] was “Active”, the Activity [36] was “Active” and the solubility thermodynamic at 24 h [11] was 76 µg/mL (≈ 184 µM). The inhibition [37] was “inactive” and the Activity [38] was “inactive”.
O=C(Nc1cc(C(F)(F)F)nc(NCCN2CCCCC2)n1)c1ccc(Cl)cc1 showed an EC50 [1] greater than 20 µM, a selectivity ratio [2] of less than 1.05 and an EC50 [3] greater than 20 µM. The selectivity ratio [4] was less than 1.05 and the CC50 at 72 h [5] was 20.8 µM.
For CN(Cc1ccc(Cl)cc1)c1cc(C(F)(F)F)nc(NCCN2CCCCC2)n1, the CC50 at 72 h [5] was 8.18 µM.
With CC1(C)CC(Nc2nc(Nc3ccc(-c4ccccc4)cc3)c3sccc3n2)CC(C)(C)N1 the EC50 [1] was 4.15 µM, the selectivity ratio [2] was 1.54 and the EC50 [3] was 4.95 µM. The selectivity ratio [4] was 1.3 and the CC50 at 72 h [5] was 6.4 µM.
For N#Cc1cc(Nc2ccc(-c3ccccc3)cc2)nc(NCCN2CCCCC2)n1, the EC50 [1] was 4.31 µM, the selectivity ratio [2] was 5.89 and the EC50 [3] was 8.06 µM. For the same compound, the selectivity ratio [4] was 3.15 and the CC50 at 72 h [5] was 25.4 µM.
Nc1ccc(CNc2cc(C(F)(F)F)nc(NCCN3CCCCC3)n2)cc1 gave a CC50 at 72 h [5] of 8.92 µM.
Compound FC(F)(F)c1cc(Nc2ccc(Cl)cc2)nc(NCCN2CCCCC2)n1 has an EC50 [1] of 10 µM, a selectivity ratio [2] of 1.88 and an EC50 [3] of 10 µM. The selectivity ratio [4] was 1.88 and the CC50 at 72 h [5] was 18.8 µM.
